The values below come from ChEMBL document CHEMBL3991601, “The target landscape of clinical kinase drugs” (Science, 2017).

Molecules are shown by their SMILES. pKd: −log10 of the molar value. The source made the active and inactive calls. For most assays here, no stated cut-off is given here; in the data, actives have a measured Kd and inactives only a lower limit. Some results are limits rather than exact numbers.

Assay [1] deals with Inosine-5'-monophosphate dehydrogenase 2 (Homo sapiens, UniProt P12268).
Assay [2] addresses Rho-associated protein kinase 1 (Homo sapiens, UniProt Q13464).
The target of assay [3] is Serine/threonine-protein kinase MRCK alpha (Homo sapiens, UniProt Q5VT25).
Serine/threonine-protein kinase MRCK alpha, sequence (Q5VT25 whole entry): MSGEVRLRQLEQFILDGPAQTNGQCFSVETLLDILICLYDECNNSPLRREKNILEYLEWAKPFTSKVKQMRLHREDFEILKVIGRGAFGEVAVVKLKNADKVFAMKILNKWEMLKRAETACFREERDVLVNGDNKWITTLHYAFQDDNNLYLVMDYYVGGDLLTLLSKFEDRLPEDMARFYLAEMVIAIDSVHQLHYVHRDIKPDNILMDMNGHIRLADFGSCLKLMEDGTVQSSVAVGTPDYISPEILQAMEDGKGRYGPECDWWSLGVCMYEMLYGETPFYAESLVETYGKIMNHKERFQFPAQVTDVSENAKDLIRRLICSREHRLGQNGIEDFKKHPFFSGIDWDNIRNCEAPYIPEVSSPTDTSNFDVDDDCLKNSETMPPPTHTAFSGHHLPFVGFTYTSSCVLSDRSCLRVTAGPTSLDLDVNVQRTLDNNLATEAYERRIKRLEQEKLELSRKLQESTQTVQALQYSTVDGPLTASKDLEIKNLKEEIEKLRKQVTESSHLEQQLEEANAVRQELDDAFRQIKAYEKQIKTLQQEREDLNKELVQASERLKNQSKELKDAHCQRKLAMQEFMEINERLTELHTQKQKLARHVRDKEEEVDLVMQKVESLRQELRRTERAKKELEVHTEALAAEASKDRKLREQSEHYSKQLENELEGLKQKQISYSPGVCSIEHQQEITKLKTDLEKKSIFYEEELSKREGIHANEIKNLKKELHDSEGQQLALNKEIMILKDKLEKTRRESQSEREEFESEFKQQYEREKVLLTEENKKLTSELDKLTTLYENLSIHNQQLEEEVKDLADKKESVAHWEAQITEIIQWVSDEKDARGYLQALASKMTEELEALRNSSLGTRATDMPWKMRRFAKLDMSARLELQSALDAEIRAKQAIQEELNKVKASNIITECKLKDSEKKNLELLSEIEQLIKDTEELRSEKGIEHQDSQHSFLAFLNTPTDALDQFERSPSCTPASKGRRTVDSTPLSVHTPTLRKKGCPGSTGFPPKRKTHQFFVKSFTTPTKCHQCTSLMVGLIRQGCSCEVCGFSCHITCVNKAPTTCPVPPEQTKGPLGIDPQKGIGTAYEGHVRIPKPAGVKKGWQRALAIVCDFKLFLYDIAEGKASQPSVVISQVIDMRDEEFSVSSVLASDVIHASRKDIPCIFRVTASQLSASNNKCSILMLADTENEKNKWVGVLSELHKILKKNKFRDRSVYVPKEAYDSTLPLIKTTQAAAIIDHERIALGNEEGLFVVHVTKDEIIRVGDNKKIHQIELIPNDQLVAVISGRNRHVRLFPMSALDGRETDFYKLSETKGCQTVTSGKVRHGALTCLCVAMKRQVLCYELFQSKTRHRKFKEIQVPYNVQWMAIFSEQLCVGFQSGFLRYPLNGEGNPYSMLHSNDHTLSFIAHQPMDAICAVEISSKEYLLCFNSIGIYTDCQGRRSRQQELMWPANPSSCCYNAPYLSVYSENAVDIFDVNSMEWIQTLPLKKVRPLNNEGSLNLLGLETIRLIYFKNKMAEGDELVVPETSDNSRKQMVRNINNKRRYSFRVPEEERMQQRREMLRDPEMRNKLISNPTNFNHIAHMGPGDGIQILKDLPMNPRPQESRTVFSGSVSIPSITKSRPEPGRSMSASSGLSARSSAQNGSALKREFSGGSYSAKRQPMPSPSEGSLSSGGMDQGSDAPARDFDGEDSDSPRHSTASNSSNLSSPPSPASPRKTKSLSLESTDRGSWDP
The target in assay [4] is Tyrosine-protein kinase Fyn (Homo sapiens, UniProt P06241).
Tyrosine-protein kinase Fyn, sequence (P06241 whole entry): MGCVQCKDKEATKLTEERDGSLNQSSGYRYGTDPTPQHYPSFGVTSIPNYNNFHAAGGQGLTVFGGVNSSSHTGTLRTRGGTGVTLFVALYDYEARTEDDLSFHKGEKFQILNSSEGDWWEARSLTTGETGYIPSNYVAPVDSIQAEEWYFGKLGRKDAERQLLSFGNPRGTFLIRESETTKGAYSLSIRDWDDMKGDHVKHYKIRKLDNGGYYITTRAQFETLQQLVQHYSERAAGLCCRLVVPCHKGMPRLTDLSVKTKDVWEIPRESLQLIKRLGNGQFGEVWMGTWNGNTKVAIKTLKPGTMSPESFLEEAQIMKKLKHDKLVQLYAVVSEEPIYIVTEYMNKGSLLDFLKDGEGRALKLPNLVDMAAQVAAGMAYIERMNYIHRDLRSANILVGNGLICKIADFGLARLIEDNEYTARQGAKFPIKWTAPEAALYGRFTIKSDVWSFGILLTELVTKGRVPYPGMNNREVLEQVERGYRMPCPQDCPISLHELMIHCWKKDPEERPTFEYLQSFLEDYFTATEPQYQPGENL
The target in assay [5] is Serine/threonine-protein kinase PAK 2 (Homo sapiens, UniProt Q13177).
For assay [6], the target named is T1, Serine/threonine-protein kinase 4 (Homo sapiens, UniProt Q13043).
T1 sequence (Q13043 whole entry): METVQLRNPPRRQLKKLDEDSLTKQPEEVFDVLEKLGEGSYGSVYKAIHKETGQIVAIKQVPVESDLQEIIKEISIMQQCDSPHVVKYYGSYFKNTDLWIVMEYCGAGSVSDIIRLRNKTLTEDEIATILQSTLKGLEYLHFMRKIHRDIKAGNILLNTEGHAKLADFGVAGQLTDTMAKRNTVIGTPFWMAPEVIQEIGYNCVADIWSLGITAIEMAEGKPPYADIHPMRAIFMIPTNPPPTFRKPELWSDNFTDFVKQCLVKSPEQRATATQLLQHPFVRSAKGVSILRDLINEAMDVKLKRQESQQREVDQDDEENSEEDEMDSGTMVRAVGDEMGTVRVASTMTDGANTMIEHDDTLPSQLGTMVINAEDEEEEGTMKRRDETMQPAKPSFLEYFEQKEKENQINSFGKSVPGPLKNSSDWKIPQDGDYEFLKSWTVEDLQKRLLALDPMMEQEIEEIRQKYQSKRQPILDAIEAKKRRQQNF

Assay [7] concerns the target Activated CDC42 kinase 1 (Homo sapiens, UniProt Q07912).
Assay [8] deals with Midasin (Homo sapiens, UniProt Q9NU22).
For assay [9], the target named is Cyclin-dependent kinase 13 (Homo sapiens, UniProt Q14004).
Assay [10] deals with RAC-gamma serine/threonine-protein kinase (Homo sapiens, UniProt Q9Y243).
RAC-gamma serine/threonine-protein kinase, sequence (Q9Y243 whole entry): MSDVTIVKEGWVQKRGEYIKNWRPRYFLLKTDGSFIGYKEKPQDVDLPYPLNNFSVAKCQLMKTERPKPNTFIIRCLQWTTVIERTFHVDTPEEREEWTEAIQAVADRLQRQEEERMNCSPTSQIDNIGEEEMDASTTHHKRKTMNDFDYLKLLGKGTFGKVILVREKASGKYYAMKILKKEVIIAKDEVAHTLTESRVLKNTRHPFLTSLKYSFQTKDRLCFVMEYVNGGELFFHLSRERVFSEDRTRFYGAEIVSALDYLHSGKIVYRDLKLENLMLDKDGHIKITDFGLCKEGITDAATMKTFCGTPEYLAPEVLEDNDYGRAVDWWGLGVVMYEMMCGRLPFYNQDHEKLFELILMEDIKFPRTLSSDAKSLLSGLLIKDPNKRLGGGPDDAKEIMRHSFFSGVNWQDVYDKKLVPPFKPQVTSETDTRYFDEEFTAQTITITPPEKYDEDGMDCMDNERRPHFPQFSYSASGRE
Assay [11] deals with Serine/threonine-protein kinase N2 (Homo sapiens, UniProt Q16513).
Serine/threonine-protein kinase N2, sequence (Q16513 whole entry): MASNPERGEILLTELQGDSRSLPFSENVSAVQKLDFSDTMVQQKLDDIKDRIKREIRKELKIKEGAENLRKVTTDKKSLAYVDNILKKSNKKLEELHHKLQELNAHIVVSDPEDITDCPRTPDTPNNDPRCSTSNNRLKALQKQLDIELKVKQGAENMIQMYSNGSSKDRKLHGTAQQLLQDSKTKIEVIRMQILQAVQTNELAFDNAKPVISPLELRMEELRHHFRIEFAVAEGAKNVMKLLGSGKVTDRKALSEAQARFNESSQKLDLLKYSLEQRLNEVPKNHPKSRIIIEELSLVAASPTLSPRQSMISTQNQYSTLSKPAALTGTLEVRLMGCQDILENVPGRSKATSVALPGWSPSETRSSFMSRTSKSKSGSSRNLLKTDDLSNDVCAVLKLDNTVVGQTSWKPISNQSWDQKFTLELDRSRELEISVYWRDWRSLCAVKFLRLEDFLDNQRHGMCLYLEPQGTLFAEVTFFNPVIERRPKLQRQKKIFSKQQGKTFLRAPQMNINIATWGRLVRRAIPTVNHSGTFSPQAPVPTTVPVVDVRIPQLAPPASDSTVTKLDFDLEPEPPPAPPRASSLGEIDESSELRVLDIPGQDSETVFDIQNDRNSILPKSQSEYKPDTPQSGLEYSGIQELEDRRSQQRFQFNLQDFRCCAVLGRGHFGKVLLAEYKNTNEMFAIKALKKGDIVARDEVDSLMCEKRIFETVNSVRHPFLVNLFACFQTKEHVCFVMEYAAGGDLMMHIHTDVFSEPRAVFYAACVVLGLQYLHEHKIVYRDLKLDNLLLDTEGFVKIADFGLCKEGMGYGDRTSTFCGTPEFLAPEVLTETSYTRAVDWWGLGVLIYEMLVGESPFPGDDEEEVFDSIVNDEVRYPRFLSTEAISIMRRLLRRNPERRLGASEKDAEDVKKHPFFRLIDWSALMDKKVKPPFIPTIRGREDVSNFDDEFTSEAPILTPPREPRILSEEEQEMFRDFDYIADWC
The target of assay [12] is Ephrin type-A receptor 2 (Homo sapiens, UniProt P29317).
The target in assay [13] is Myosin-14 (Homo sapiens, UniProt Q7Z406).
Assay [14] concerns the target Ribosomal protein S6 kinase beta-1 (Homo sapiens, UniProt P23443).
For assay [15], the target named is T2, Serine/threonine-protein kinase Nek9 (Homo sapiens, UniProt Q8TD19).
T2 sequence (Q8TD19 whole entry): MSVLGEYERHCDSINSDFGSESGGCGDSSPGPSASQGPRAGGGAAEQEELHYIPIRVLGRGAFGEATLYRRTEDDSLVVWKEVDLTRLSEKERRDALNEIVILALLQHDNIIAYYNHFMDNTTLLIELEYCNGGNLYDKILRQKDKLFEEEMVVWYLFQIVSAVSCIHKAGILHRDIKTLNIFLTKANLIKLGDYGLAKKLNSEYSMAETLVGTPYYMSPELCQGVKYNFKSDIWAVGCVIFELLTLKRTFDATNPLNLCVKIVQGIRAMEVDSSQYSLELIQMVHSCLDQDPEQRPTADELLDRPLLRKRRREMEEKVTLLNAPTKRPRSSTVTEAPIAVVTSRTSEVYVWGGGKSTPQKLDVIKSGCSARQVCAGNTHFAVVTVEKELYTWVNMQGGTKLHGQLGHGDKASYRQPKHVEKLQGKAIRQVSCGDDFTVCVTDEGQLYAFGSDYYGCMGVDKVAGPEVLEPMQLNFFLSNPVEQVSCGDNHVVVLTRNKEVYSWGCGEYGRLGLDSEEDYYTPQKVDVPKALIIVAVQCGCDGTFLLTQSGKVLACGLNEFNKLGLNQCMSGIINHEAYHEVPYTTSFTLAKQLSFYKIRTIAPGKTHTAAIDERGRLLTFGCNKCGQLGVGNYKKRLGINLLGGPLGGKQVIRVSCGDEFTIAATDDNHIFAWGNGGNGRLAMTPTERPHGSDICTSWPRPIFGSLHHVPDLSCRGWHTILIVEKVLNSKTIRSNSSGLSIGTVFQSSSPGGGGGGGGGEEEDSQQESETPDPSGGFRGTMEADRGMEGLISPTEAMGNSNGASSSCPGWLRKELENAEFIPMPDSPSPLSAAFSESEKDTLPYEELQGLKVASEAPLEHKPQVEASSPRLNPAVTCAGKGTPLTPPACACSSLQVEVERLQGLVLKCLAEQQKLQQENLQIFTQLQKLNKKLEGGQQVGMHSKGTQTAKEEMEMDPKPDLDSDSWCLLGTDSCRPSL

Activated CDC42 kinase 1, sequence (Q07912 whole entry): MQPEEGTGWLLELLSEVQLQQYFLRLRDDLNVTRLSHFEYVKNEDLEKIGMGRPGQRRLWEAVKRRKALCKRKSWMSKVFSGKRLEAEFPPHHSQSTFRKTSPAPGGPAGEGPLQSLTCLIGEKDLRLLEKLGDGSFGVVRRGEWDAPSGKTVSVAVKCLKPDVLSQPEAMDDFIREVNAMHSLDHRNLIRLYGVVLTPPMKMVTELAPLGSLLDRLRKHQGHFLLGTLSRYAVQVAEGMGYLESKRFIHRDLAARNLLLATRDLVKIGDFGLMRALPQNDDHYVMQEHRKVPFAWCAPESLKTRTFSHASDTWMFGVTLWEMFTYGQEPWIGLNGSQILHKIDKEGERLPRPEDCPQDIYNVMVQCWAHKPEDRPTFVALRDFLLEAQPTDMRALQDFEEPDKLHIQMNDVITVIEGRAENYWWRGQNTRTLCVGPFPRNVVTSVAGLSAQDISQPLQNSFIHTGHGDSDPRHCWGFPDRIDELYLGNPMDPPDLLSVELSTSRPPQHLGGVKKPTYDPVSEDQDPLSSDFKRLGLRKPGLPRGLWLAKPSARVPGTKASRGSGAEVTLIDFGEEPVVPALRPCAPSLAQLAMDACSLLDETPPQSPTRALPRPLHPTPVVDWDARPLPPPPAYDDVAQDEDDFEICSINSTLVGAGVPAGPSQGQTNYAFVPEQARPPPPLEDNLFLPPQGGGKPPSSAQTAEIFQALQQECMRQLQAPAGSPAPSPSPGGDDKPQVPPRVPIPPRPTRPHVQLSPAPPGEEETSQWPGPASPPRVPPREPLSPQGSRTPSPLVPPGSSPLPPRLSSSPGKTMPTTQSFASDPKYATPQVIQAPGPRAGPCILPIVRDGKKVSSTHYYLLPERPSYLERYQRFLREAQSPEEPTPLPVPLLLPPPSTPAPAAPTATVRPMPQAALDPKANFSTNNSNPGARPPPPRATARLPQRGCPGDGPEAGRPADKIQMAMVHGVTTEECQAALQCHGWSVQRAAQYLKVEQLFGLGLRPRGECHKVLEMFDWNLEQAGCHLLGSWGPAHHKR

As a reminder, the Kd is the concentration at which binding is half-saturated. Turning to `CO[C@H]1C[C@@H]2CC[C@@H](C)[C@@](O)(O2)C(=O)C(=O)N2CCCC[C@H]2C(=O)O[C@H]([C@H](C)C[C@@H]2CC[C@@H](OC(=O)C(C)(CO)CO)[C@H](OC)C2)CC(=O)[C@H](C)/C=C(\C)[C@@H](O)[C@@H](OC)C(=O)[C@H](C)C[C@H](C)/C=C/C=C/C=C/1C` [TEMSIROLIMUS], the Kd in assay [1], in [2], in [3], in [4], in assay [5] and in assay [6] was > 30 µM (inactive) in each case. In addition, the Kd in assay [7], in assay [8], in [9], in assay [10], in [11] and in [12] was > 30 µM (inactive) in each case. Moreover, the Kd in assay [13], in assay [14] and in assay [15] was > 30 µM (inactive) each time.
Turning to `COc1cc2c(Nc3ccc(Cl)c(Cl)c3F)ncnc2cc1OC[C@@H]1C[C@@H]2CN(C)C[C@@H]2C1` [TESEVATINIB], the Kd in [1], in [2], in [3], in assay [4], in assay [5] and in assay [6] was > 30 µM (inactive) throughout. Moreover, the Kd in assay [7] was > 30 µM (inactive); in [8] it was > 30 µM (inactive); in assay [9], > 30 µM (inactive); in [10] it was > 30 µM (inactive); in [11], > 30 µM (inactive); in assay [12], 0.501 µM (active). Also, the Kd in assay [13], in assay [14] and in [15] was > 30 µM (inactive) each time.
On to `O=C1NC(=O)[C@@H](c2cn3c4c(cccc24)CCC3)[C@@H]1c1c[nH]c2ccccc12` [TIVANTINIB], for which the Kd in [1], in [2], in assay [3], in assay [4], in assay [5] and in assay [6] was > 30 µM (inactive) each time. Further, the Kd in [7], in assay [8], in assay [9], in assay [10], in assay [11] and in assay [12] was > 30 µM (inactive) in each case. Besides, the Kd in assay [13], in assay [14] and in assay [15] was > 30 µM (inactive) in each case.
For the compound `C[C@@H](NC(=O)c1ncnc(N)c1Cl)c1ncc(C(=O)Nc2cc(C(F)(F)F)c(Cl)cn2)s1` [TOVORAFENIB], the Kd in assay [1], in assay [2], in assay [3], in assay [4], in [5] and in [6] was > 30 µM (inactive) each time. The Kd in assay [7] was > 30 µM (inactive); in assay [8] it was > 30 µM (inactive); in assay [9], > 30 µM (inactive); in assay [10], > 30 µM (inactive); in assay [11], > 30 µM (inactive); in assay [12], 0.807 µM (active). Also, the Kd in assay [13], in assay [14] and in [15] was > 30 µM (inactive) in each case.
By pKd is commonly meant the Kd on a negative log10 scale, so that one unit is a factor of ten. For the compound `Cc1cc(Nc2ncnc3ccc(NC4=NC(C)(C)CO4)cc23)ccc1Oc1ccn2ncnc2c1` [TUCATINIB], the Kd in assay [1], in [2], in [3], in assay [4], in [5] and in assay [6] was > 30 µM (inactive) in each case. Moreover, the Kd in assay [7], in [8], in assay [9], in assay [10], in assay [11] and in assay [12] was > 30 µM (inactive) throughout. In addition, the Kd in [14] and in [15] was > 30 µM (inactive) in each case. For the same compound, the negative logarithm of the Kd (pKd) in [13] is 6.73.
As for `CN1C/C=C/CCOc2cccc(c2)-c2ccnc(n2)Nc2cccc(c2)C1` [ZOTIRACICLIB], the Kd in assay [1] is > 30 µM (inactive); in assay [3], > 30 µM (inactive); in assay [4], > 30 µM (inactive); in [5] it was > 30 µM (inactive); in assay [6], 1.8 µM (active); in [7], > 30 µM (inactive). Further, the Kd in [8], in [9], in assay [10], in [12], in assay [13] and in assay [14] was > 30 µM (inactive) throughout. Besides, in assay [15], the Kd is > 30 µM (inactive). In addition, the pKd is 4.00 in assay [2] and 6.85 in assay [11].
